pIC50: −log10 of the molar value.
Experiments:
human PDE9A2 = target: T1, human PDE9A2 (Homo sapiens, UniProt O76083); assay: PDE9A2 enzymatic activity assay (scintillation proximity assay); format: biochemical; conditions: for pIC50: specific IC50 value is within the given range
T1 construct: made in house; host or cells: Sf9 insect cells (infected; crude lysate used as enzyme source)
Protocol: The PDE9A2 enzymatic activity assay was run as scintillation proximity assay (SPA), in general according to the protocol of the manufacturer (Amersham Biosciences, product number: TRKQ 7100).
As enzyme source, lysate (PBS with 1% Triton X-100 supplemented with protease inhibitors, cell debris removed by centrifugation at 13.000 rpm for 30 min) of SF 9 cell expressing the human PDE9A2 was used. The total protein amount included in the assay varied upon infection and production efficacy of the SF9 cells and lay in the range of 0.1-100 ng.
In general, the assay conditions were as follows: • total assay volume: 40 microliter • protein amount: 0.1-50 ng • substrate concentration (cGMP): 20 nanomolar; ˜1 mCi/1 • incubation time: 60 min at room temperature • final DMSO concentration: 0.2-1
The assays were run in 384-well format. The test reagents as well as the enzyme and the substrate were diluted in assay buffer. The assay buffer contained 50 mM Tris, 8.3 mM MgCl2, 1.7 mM EGTA, 0.1% BSA, 0.05% Tween 20; the pH of assay buffer was adjusted to 7.5. The reaction was stopped by applying a PDE9 specific inhibitor (e.g. compounds according to WO04099210 or WO04099211) in excess.
The activity of the positive control (minus the negative control=background) is set to 100% and activity in the presence of test compound is expressed relative to these 100%. Within this setting, an inhibition above 100% might be possible due to the nature of the variation of the positive control within the assay. In the following inhibition of PDE 9A2 is presented for a concentration at 10 μM, if not indicated otherwise.
IC50 can be calculated with GraphPadPrism or other suited software setting the positive control as 100 and the negative control as 0. For calculation of IC50 dilutions of the test compounds (substrates) are to be selected and tested following the aforementioned protocol.

human PDE9A = human PDE9A (Homo sapiens, UniProt O76083); conditions: concentrations of up to 100 micromolar (μM); cited from earlier work
Sequence of human PDE9A (O76083 whole entry): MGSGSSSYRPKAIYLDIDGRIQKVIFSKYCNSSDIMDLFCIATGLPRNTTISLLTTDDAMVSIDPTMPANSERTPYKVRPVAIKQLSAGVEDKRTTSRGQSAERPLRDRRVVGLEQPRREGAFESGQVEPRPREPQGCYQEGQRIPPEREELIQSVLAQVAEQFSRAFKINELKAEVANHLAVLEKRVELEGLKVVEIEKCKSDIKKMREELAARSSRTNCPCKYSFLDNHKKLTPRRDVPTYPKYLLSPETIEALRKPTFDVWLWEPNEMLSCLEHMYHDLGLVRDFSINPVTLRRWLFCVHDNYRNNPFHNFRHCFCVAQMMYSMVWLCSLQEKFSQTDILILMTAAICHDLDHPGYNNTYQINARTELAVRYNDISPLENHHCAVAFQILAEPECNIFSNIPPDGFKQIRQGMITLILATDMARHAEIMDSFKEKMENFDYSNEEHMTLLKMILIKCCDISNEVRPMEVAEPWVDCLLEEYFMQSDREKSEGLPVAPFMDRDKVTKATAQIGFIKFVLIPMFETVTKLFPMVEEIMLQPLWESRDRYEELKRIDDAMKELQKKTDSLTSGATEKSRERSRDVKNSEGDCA

Murine PDE9A = target: T2, Murine PDE9A (Mus musculus, UniProt O70628); conditions: concentrations below 200 micromolar; cited from earlier work
T2 sequence (O70628 1-534): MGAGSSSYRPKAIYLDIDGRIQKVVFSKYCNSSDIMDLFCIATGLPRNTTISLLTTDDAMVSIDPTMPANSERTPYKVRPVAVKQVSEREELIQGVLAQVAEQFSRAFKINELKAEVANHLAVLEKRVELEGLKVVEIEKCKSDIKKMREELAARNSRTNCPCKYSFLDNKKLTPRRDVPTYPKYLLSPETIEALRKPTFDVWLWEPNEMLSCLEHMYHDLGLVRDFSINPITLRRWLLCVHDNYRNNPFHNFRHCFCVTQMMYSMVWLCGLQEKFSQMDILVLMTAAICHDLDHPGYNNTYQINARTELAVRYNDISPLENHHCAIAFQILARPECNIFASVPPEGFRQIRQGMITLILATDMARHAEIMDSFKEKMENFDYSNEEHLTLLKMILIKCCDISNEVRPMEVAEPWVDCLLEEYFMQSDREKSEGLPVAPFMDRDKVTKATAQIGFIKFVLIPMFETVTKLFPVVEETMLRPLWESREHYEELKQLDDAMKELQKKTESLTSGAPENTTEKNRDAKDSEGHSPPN

[1] = read-out: % Inhibition of PDE 9A2

T1 sequence (O76083 1-533 isoform O76083-2): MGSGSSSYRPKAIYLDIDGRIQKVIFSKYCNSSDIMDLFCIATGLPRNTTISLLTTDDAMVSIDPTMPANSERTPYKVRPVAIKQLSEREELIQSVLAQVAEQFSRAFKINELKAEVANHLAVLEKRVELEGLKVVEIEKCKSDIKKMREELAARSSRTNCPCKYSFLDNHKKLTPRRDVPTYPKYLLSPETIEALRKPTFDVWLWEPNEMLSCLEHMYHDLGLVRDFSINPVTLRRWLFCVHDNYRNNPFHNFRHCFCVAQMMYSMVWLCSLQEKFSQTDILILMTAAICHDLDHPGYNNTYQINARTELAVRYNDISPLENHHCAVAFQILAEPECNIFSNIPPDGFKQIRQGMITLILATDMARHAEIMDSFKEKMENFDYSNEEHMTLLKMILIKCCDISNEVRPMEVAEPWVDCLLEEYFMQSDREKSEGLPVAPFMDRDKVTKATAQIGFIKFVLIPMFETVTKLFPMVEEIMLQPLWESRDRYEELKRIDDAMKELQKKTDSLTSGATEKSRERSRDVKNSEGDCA

Row | inhibition at 10 µM (human PDE9A2; [1]) [%] | pIC50 (human PDE9A2) | Compound | also measured
1 | 100 | 7.00 to 9.00 | O=c1[nH]c(Cc2ccccc2-c2ccnnc2)nc2c1cnn2C1CCC(F)(F)CC1 [Example 98] | 
2 | 100 | 7.00 to 9.00 | Cc1nc(-c2ccccc2Cc2nc3c(cnn3C3CCC(F)(F)CC3)c(=O)[nH]2)n[nH]1 [Example 99] | 
3 | 95 | 5.82 to 7.00 | COc1cccnc1Cc1nc2c(cnn2C2CCC(F)(F)CC2)c(=O)[nH]1 [Example 100] | 
4 |  | 7.00 to 9.00 | O=c1[nH]c(Cc2ccccc2C2CC2)nc2c1cnn2C1CCC(F)(F)CC1 [Example 103] | inhibition at 3.3 µM (human PDE9A2; at 3.3 μM, read-out: % Inhibition of PDE 9A2): 96%
5 | 97 | 7.00 to 9.00 | O=c1[nH]c(Cc2ccccc2-n2cccc2)nc2c1cnn2C1CCC(F)(F)CC1 [Example 104] | 
6 | 97 | 5.82 to 7.00 | O=c1[nH]c(Cc2ncccc2C2CC2)nc2c1cnn2C1CCC(F)(F)CC1 [Example 105] | 
7 | 83 | 7.00 to 9.00 | Cc1ccn(-c2ccccc2Cc2nc3c(cnn3C3CCC(F)(F)CC3)c(=O)[nH]2)n1 [Example 106] | 
8 | 100 | 7.00 to 9.00 | Nc1ccccc1Cc1nc2c(cnn2C2CCC(F)(F)CC2)c(=O)[nH]1 [Example 107] | 
9 | 99 | 7.00 to 9.00 | O=c1[nH]c(Cc2ccccc2-n2cnnc2)nc2c1cnn2C1CCC(F)(F)CC1 [Example 108] | 
10 | 93 |  | O=c1[nH]c(Cc2ccccn2)nc2c1cnn2C1CCC(F)CC1 (centres unmarked) [Example 109] | 
11 | 95 |  | Cc1cccnc1Cc1nc2c(cnn2C2CCC(F)CC2)c(=O)[nH]1 (centres unmarked) [Example 110] | 
12 | 74 | 7.00 to 9.00 | O=c1[nH]c(CC2CCC2)nc2c1cnn2C1CCC(F)CC1 (centres unmarked) [Example 111] | 
13 | 97 | 7.00 to 9.00 | CC(C)Cc1nc2c(cnn2C2CCC(F)CC2)c(=O)[nH]1 (centres unmarked) [Example 112] | 
14 | 98 | 7.00 to 9.00 | O=c1[nH]c(CC2CCCC2)nc2c1cnn2C1CCC(F)CC1 (centres unmarked) [Example 113] | 
15 |  |  | CC(C)Cn1c(=O)n(C)c(=O)c2[nH]cnc21 [IBMX] | inhibition on the isolated enzyme (human PDE9A): no inhibition; inhibition of murine PDE9A (Murine PDE9A): not inhibited
16 |  |  | CC(=O)Nc1ccc(-c2c[nH]c(=O)cn2)cc1 [SKF94120] | inhibition on the isolated enzyme (human PDE9A): no inhibition
17 |  |  | OCCN(CCO)c1nc(N2CCCCC2)c2nc(N(CCO)CCO)nc(N3CCCCC3)c2n1 [dipyridamole] | inhibition on the isolated enzyme (human PDE9A): no inhibition
18 |  |  | COc1ccc(C2CNC(=O)C2)cc1OC1CCCC1 (centres unmarked) [rolipram] | inhibition on the isolated enzyme (human PDE9A): no inhibition
19 |  |  | CCOC(=O)C1=C[C@]2(CC)CCCN3CCc4c(n1c1ccccc41)[C@@H]32 [vinpocetine] | inhibition on the isolated enzyme (human PDE9A): no inhibition

— patent publication US9079905B2, “Compounds for the treatment of CNS disorders” (Boehringer Ingelheim International GmbH, priority 2008, dated 2015)
